We go through 1 compound from patent US5925627A, “Use of NK-1 receptor antagonists for treating movement disorders” (Merck Sharp & Dohme Ltd., priority 1996, dated 1999).

Assay [1] has as its system separation-induced vocalisations by guinea-pig pups. The experiment in a line: animal or person. Conditions: Cavia porcellus, po, 4 h, read-out: guinea-pig vocalisation (4 hr. pre-treatment): ID50. As to the method:
Male and female guinea-pigs pups are housed in family groups with their mothers and littermates throughout the study. Experiments are commenced after weaning when the pups are 2 weeks old. Before entering an experiment, the pups are screened to ensure that a vigorous vocalisation response is reproducibly elicited following maternal separation. The pups are placed individually in an observation cage (55 cm×39 cm×19 cm) in a room physically isolated from the home cage for 15 minutes and the duration of vocalisation during this baseline period is recorded. […] On test days each pup receives an oral dose or an s.c. or i.p. injection of test compound or vehicle and is then immediately returned to the home cage with its mother and siblings for 30 to 60 minutes (or for up to 4 hours following an oral dose, dependent upon the oral pharmacokinetics of the test compound) before social isolation for 15 minutes as described above. […] Between 6 and 8 animals receive each test compound at each dose tested.

Assay [2] deals with NK-1 receptor (foot tapping induced by NK-1 agonist GR73632). Nature of the assay: Gerbil Foot-Tapping (Assay 2). It counts as in vivo, Mongolian gerbil. Conditions: Meriones unguiculatus, iv. From the text:
CNS-penetrant NK-1 receptor antagonists for use in the present invention can be identified by their ability to inhibit foot tapping in gerbils induced by anxiogenic agents (such as pentagastrin) or central infusion of NK-1 receptor agonists such as GR73632, or caused by aversive stimulation such as foot shock or single housing, based on the method of Rupniak & Williams, Eur. J. Pharmacol., 1994, 265, 179.
Male or female Mongolian gerbils (35-70 g) are anaesthetised by inhalation of an isoflurane/oxygen mixture to permit exposure of the jugular vein in order to permit administration of test compounds or vehicle in an injection volume of 5 ml/kg i.v. Alternatively, test compounds may be administered orally or by subcutaneous or intraperitoneal routes. A skin incision is then made in the midline of the scalp to expose the skull.

Each structure is given as a SMILES string. Where two headings read alike, the source gives them in different places.

In the case of `C[C@@H](O[C@H]1OCCN(Cc2n[nH]c(=O)[nH]2)[C@H]1c1ccc(F)cc1)c1cc(C(F)(F)F)cc(C(F)(F)F)c1` [2-(R)-(1-(R)-(3,5-bis(trifluoromethyl)phenyl)-ethoxy)-3-(S)-(4-fluorophenyl)-4-(3-(5-oxo-1H, 4H-1,2,4-triazolo)methyl)-morpholine], the ED50 in assay [1] was 0.73 mg/kg; in assay [2] (5 min, i.v. immediately prior to GR73632 challenge, read-out: gerbil foot-tapping (5 mins.): ID50), 0.36 mg/kg; in assay [2] (24 hrs., i.v. 24 hours prior to central NK1 agonist challenge, read-out: gerbil foot-tapping (24 hrs.): ID50), 0.33 mg/kg.
